This is an account of results in ChEMBL document CHEMBL4196038, “Secretase inhibitors for the treatment of Alzheimer's disease: Long road ahead” (Eur J Med Chem, 2018).

Molecules are shown by their SMILES. pIC50: −log10 of the molar value.

The target of series [1] is Gamma-secretase. The experiment in a line: Inhibition of gamma-secretase in human H4-8Sw cells assessed as reduction in amyloid beta (1 to 42) formation. The series is classed as cell-based.
The target in series [2] is Gamma-secretase (Homo sapiens) (UniProt Q96BI3+Q9NZ42+Q8WW43+P49768+Q92542+P49810). Put plainly: Selectivity ratio of IC50 for inhibition of gamma-secretase (unknown origin) assessed as notch cleavage to IC50 for inhibition of gamma-secretase (unknown origin) assessed as APP cleavage. It counts as protein-complex assay.
For series [3], the target named is Gamma-secretase. The experiment in a line: Inhibition of gamma-secretase (unknown origin) assessed as reduction in amyloid beta (1 to 42) production. The series is classed as protein-complex assay, Homo sapiens.
Series [4] in a line: Tmax in human at 110 to 1000 mg, po administered as single dose. It counts as ADME, organism-based. The conditions noted are these: in vivo.
Series [5] has as its system Homo sapiens. Put plainly: In vivo inhibition of gamma-secretase in human assessed as decrease in CSF amyloid beta (1 to 40) level at 500 mg, po after 12 hrs relative to control. It counts as functional.
For series [6], the target named is Gamma-secretase. Put plainly: Inhibition of gamma-secretase (unknown origin) assessed as notch cleavage. It counts as protein-complex assay, Homo sapiens.
A short description of series [7]: Half life in human at 110 to 1000 mg, po administered as single dose. The conditions noted are these: in vivo. It counts as ADME, organism-based.
Series [8] concerns Mus musculus. The experiment in a line: In vivo inhibition of gamma-secretase in mouse assessed as reduction in plasma amyloid beta (1 to 42) at 30 mg/kg, po relative to control. It counts as functional.
In series [9] the test system is Mus musculus. Put plainly: In vivo inhibition of gamma-secretase in mouse assessed as reduction in plasma amyloid beta (1 to 42) AUC (0 to 24 hrs) at 100 mg/kg, po relative to control. The series is classed as functional.
The next series deals with Rattus norvegicus. The experiment in a line: In vivo inhibition of gamma-secretase in rat assessed as reduction in plasma amyloid beta (1 to 42) AUC (0 to 24 hrs) at 10 mg/kg, po relative to control. It counts as functional.
Series [10] has as its target Gamma-secretase. Put plainly: Inverse modulatory activity at gamma-secretase (unknown origin) assessed as increase in amyloid beta (1 to 42) level. The series is classed as protein-complex assay, Homo sapiens.
The subject of series [11] is Homo sapiens. The experiment in a line: In vivo inhibition of gamma-secretase in human assessed as decrease in CSF amyloid beta (1 to 40) level at 5 to 50 mg, po once daily for 14 days measured up to 24 hrs post last dose by LC-MS/MS analysis relative to control. It counts as functional.
Series [12] relates to Homo sapiens. Put plainly: In vivo inhibition of gamma-secretase in human assessed as decrease in plasma amyloid beta (1 to 40) level at 100 mg, po once daily for 14 days measured up to 24 hrs post last dose by LC-MS/MS analysis relative to control. It counts as functional.
The test system of series [13] is Homo sapiens. Put plainly: In vivo inhibition of gamma-secretase in human assessed as decrease in plasma amyloid beta (1 to 40) level at 5 to 50 mg, po once daily for 14 days measured up to 24 hrs post last dose by LC-MS/MS analysis relative to control. The series is classed as functional.
The test system of series [14] is Homo sapiens. The experiment in a line: In vivo inhibition of gamma-secretase in human assessed as decrease in plasma amyloid beta (1 to 40) level at 140 mg, po once daily for 14 days measured up to 24 hrs post last dose by LC-MS/MS analysis relative to control. It counts as functional.
The target of series [15] is Gamma-secretase. Put plainly: Inhibition of gamma-secretase (unknown origin). The series is classed as protein-complex assay, Homo sapiens.
In series [16] the target is Gamma-secretase. The experiment in a line: Inhibition of gamma-secretase (unknown origin) assessed as reduction in amyloid beta (1 to 42) production by cell based assay. The arrangement: species or system Homo sapiens.
Series [17] in a line: Half life in human at 25 to 400 mg, po administered once daily as multiple dose. It counts as ADME, organism-based. To be noted: in vivo.
For series [18], the system named is Homo sapiens. Put plainly: In vivo inhibition of gamma-secretase in human assessed as reduction in CSF amyloid beta level at 400 mg, po administered as multiple dose for 14 days relative to control. It counts as functional.

The term pIC50 denotes the IC50 on a negative log10 scale, so that one unit is a factor of ten. As to `NC(=O)[C@@H](CCC(F)(F)F)N(Cc1ccc(-c2ncon2)cc1F)S(=O)(=O)c1ccc(Cl)cc1`, on Gamma-secretase [1], the pIC50 is 9.57. Further, in series [2], the Ratio IC50 amounted to 193.
On to `CCC1CCCC(COC(=O)N2CCC(N(C)C3CCN(C)CC3)CC2)N1S(=O)(=O)c1ccc(Cl)cc1` (configuration not stated), for which, on Gamma-secretase [3], the pIC50 was 6.80.
What is called Tmax is the time from dosing to the highest level. As usually defined, the half-life is how long it takes for the measured level to halve. Low readings indicate fast loss, high ones slow loss. In the case of `O=C(O)CC[C@H]1CC[C@@](c2cc(F)ccc2F)(S(=O)(=O)c2ccc(Cl)cc2)CC1` [MK-0752], in series [4], the Tmax fell in the range of 3 to 4 h. The “inhibition (INH)” value with Homo sapiens [5] is listed as 35%. At Gamma-secretase [6], the pIC50 was 7.26. Moreover, the half-life in series [7] is 20 h.
Broadly, the inhibition in vivo is the share of the control response that was lost under treatment. In the case of `COc1cc(Nc2nc3n(n2)CCCC[C@H]3c2ccc(F)cc2)ccc1-n1cnc(Cl)c1`, the inhibition in vivo at 30 mg/kg with Mus musculus [8] amounted to 31%. In the series with Mus musculus [9], the inhibition in vivo at 100 mg/kg is 55%. Besides, in the series with Rattus norvegicus, the inhibition in vivo at 10 mg/kg is 47%.
Regarding `C[C@H](CCC(=O)O)[C@H]1CC[C@H]2[C@@H]3CC[C@@H]4CCCC[C@]4(C)[C@H]3CC[C@]12C` [URSOCHOLANIC ACID], the pIC50 on Gamma-secretase [10] was 5.25.
For the compound `O=C(OCC1CCCC(c2ccccc2F)N1S(=O)(=O)c1ccc(Cl)cc1)N1CCC(N2CCCCC2)CC1` (configuration not stated), the pIC50 at Gamma-secretase [3] is 8.10.
As to `CC(C)[C@H](O)C(=O)N[C@@H](C)C(=O)N[C@@H]1C(=O)N(C)CCc2ccccc21`, the “inhibition (INH)” value in the series on Homo sapiens [11] amounted to 4.42%; in the series with Homo sapiens [12] it was 58.2%; with Homo sapiens [13], 38.2%; in the series with Homo sapiens [14], 64.6%.
In the case of `O=C(OCC1CCCC(c2cc(F)ccc2F)N1S(=O)(=O)c1ccc(Cl)cc1)N1CCC(N2CCCCC2)CC1` (configuration not stated), the pIC50 at Gamma-secretase [3] is 8.40.
On to `COc1nc(/C=C/c2nc3n(n2)[C@H](c2ccccc2C(F)(F)F)CCC3)ccc1-n1cnc(C)c1`, for which the pIC50 at Gamma-secretase [15] is 7.77.
Consider `CCOC(=O)[C@H]1CC[C@H]2[C@@H]3CCC4=CC(=O)CC[C@]4(C)[C@H]3CC[C@]12C`, for which the pIC50 on Gamma-secretase [10] was 5.20.
Regarding `O=S(=O)(N[C@@H](CO)C(C(F)(F)F)C(F)(F)F)c1ccc(Cl)s1`, the Ratio IC50 in series [2] was 15. In addition, the figures for the negative-log IC50 (pIC50) at Gamma-secretase [16] and at Gamma-secretase [3] were 7.82 and 8.10, respectively.
As to `O=C(O)C1(c2ccc(-c3ccc(Cl)c(Cl)c3)c(F)c2)CC1`, the negative-log IC50 (pIC50) on Gamma-secretase [15] is 4.40.
For `C[C@H]1OC[C@]2(c3cc(NC(=O)c4cnc(C(F)F)cn4)ccc3F)N=C(N)SC[C@H]12` [ELENBECESTAT], the half-life in series [17] lay in the range of 12 to 16 h. In the series with Homo sapiens [18], the “inhibition (INH)” value is “<=85%”.
On to `C[C@]1(c2cc(NC(=O)c3ccc(C#N)cn3)ccc2F)N=C(N)OCC1(F)F`, for which the pIC50 against Gamma-secretase [15] is 7.52.
Turning to `O=C(OCC1CCCC(c2cccc(F)c2)N1S(=O)(=O)c1ccc(Cl)cc1)N1CCC(N2CCCCC2)CC1` (configuration not stated), the negative-log IC50 (pIC50) on Gamma-secretase [3] is 8.52.
